Test results taken from US11716994B2, “Combinations of Yersinia entomophaga and pesticides or other substances” (priority 2017, dated 2023).
Values joined by “and” are separate entries in the source; they are usually repeats but may differ in a detail not shown here. Equal entries are not always repeated. Where two headings read alike, the source gives them in different places.

What was measured:
diamondback moth [1] = experiment: Leaf disk mortality assay, Y. entomophaga cells with chemical insecticides; settings: in vivo
fall armyworm [2] = settings: in vivo
Colorado potato beetle [3] = settings: spinosad […]
Experimental: (§3) To produce cell free filtrates, cultures of Yersinia entomophaga grown in LB medium were centrifuged at 11,448 (g) for 10 minutes. The supernatant was decanted from the centrifuged pellet and filtered through a 0.22 μm filter. Assays were performed to determine concentrations of Yen-TC (toxin complex) using ELISA, and chitinase by measuring chitinase activity on specific substrates. […] This was done to estimate relative potency of the cell free filtrates. Insects were first pre-screened with a range of dilutions of cell free filtrates to select a concentration that provided moderate activity. […] Based on these initial screens, undiluted cell free filtrate was used for cabbage looper, fall armyworm, black cutworm, and Colorado potato beetle. […] In each of the Examples below, this is expressed as 1%.
Tomato leaf disks were dipped in either acetone (controls and Y. entomophaga alone treatments) or thiacloprid (Sigma 37905) at 1 mg/L in acetone. These were set to dry for 1 hr. […] After the tomato disks had dried for 1 hr, a single 3rd instar Colorado potato beetle was added to each individual cabbage disk. A total of 20 insects were evaluate for each treatment. Insects were observed daily and scored as live or dead.

diamondback moth [4] = settings: in vivo
Yersinia entomophaga = experiment: CFU counts after exposure of Yersinia entomophaga to insecticides; format: cell-based; settings: 1 hour contact
Summary of the method: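 Insecticides at 1× (label-rate based) and 5× or 10× amounts were dried from ethyl acetate as a coat inside tubes. Diluted LB-grown Y. entomophaga culture (1 ml) was added and held 1 hour on the bench. Then 100 μl was plated in triplicate on LB and colonies were counted after 48 hours at 25° C.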

diamondback moth [5] = experiment: whole plant or invertebrate; settings: spinosad […]
Excerpt: (§1) These were set to dry for 1 hr.
as §1
These were set to dry for 1 hr. Cabbage disks were then dipped in either 1% Luria broth (LB) media solution (controls and thiacloprid alone treatments) or in 1% cell free filtrate from a culture Y. entomophaga isolate O24G3R (Y. entomophaga alone or in combination with thiacloprid treatments).

Colorado potato beetle [6] = experiment: Tomato leaf disk mortality assay, Y. entomophaga cells with chemical insecticides
cabbage looper [7] = settings: spinosad 7.5 mg/L
Experimental: as §3
Cabbage leaf disks were dipped in either acetone (controls and Y. entomophaga alone treatments) or novaluron (Sigma 32419) at 1.0 mg/L in acetone. These were set to dry for 1 hr. […] After the cabbage disks had dried for 1 hr, a single 3rd instar cabbage looper was added to each individual cabbage disk. A total of 20 insects were evaluate for each treatment. Insects were observed daily and scored as live or dead.

fall armyworm [8] = experiment: Leaf disk mortality assay, Y. entomophaga cells with chemical insecticides
Colorado potato beetle [9] = settings: in vivo
cabbage looper [10] = experiment: whole plant or invertebrate; settings: Trichoplusia ni, foliar
tobacco budworm [11] = experiment: whole plant or invertebrate; settings: Heliothis virescens, foliar
corn earworm = experiment: Leaf disk mortality assay, Y. entomophaga cells with chemical insecticides; format: in vivo; parameters: mortality: dose or concentration left out as unconfirmed; settings: for % Mort. Chem. / LT50 Chem.: corn earworm
Experimental: (§2) 50 μl suspensions of either acetone (controls and Y. entomophaga alone treatments) or of thiodicarb (Sigma 34375) at a concentration of 140 mg/L in acetone were then dropped onto each cabbage disk. These were set to dry for 1 hr. After the disks had dried, one 2nd instar corn earworm was added to each disk. A total of 12 insects were evaluated for each treatment.
as §2, with “chlorantraniliprole” for “thiodicarb”, “32510)” for “34375)”, “18” for “140”, “24” for “12”

tobacco budworm [12] = settings: for LT50 (95% confidence intervals) in days: in vivo; for % Mort. Chem. / LT50 Chem.: tobacco budworm; for % Mort. Chem.: 1 DAT
cabbage looper [13] = tested on: cabbage looper
[14] = 3rd instar, spinosad 25 mg/L, isolate O24G3R 1×10^5 cfu/mL
[15] = 3rd instar, spinosad 25 mg/L, isolate O348UX 1×10^5 cfu/mL
[16] = 24 h, read-out: % Mortality (1DAT)
[17] = 48 h, read-out: % Mortality (2DAT)
[18] = Chlorantraniliprole alone 18 mg/L

## Spinosad
Diamondback moth [1]
  LT50 (95% confidence intervals): 8.16 days
  LT50 Chem.: 8.16 days
Fall armyworm [2]
  % Mortality (3DAT): 40%
Colorado potato beetle [3]; 3rd instar Colorado potato beetle, O43NEW undiluted filtrate, alone or combined
  LT50 (95% confidence intervals): 78.3 days
Colorado potato beetle [3]; Colorado potato beetle
  LT50 Chem.: 78.30 days
Diamondback moth [4]
  % Mortality (2DAT): 0%
  % Mortality (3DAT): 10%
  % Mortality (4DAT): 15%
  % Mortality (7DAT): 40%
  % Mortality (9DAT): 39%
  % Mortality (11DAT): 65%
Yersinia entomophaga; 0.2 mg insecticide
  Average CFU: 523 CFU
Yersinia entomophaga; 1.0 mg insecticide
  Average CFU: 487 CFU
Diamondback moth [5]; 2nd instar diamondback moth, O43NEW filtrate 1%, alone or combined
  LT50 (95% confidence intervals): 8.16 days
Diamondback moth [5]; Diamondback moth
  LT50 Chem.: 8.16 days
Colorado potato beetle [6]; Colorado potato beetle, Spinosad alone […]
  LT50 Chem.: 6.01 days
Colorado potato beetle [6]; in vivo
  LT50 (95% confidence intervals) in days: 6.01 (4.93-7.28) days
Cabbage looper [7]; 3rd instar cabbage looper, O43NEW undiluted filtrate, alone or combined, 2 DAT, Abbott's corrected
  % Mortality (2DAT): 10%
Cabbage looper [7]; 3rd instar cabbage looper, O43NEW undiluted filtrate, alone or combined, 5 DAT, Abbott's corrected
  % Mortality (5DAT): 25%
Cabbage looper [7]; 3rd instar cabbage looper, O43NEW undiluted filtrate, alone or combined, 6 DAT, Abbott's corrected
  % Mortality (6DAT): 50%
Cabbage looper [7]; 3rd instar cabbage looper, O43NEW undiluted filtrate, alone or combined, 8 DAT, Abbott's corrected
  % Mortality (8DAT): 55%
Cabbage looper [7]; 3rd instar cabbage looper, O43NEW undiluted filtrate, alone or combined, 9 DAT, Abbott's corrected
  % Mortality (9DAT): 55%
Cabbage looper [7]; Cabbage Looper
  LT50 Chem.: 7.01 days
Cabbage looper [7]; Cabbage Looper, 5 DAT
  % Mort. Chem.: 25%
Fall armyworm [8]; [14]
  % Mortality (3DAT): 80%
  LT50 (95% confidence intervals) in days: 2.43 (2.08-2.84) days
Fall armyworm [8]; [15]
  % Mortality (3DAT): 80%
  LT50 (95% confidence intervals) in days: 2.43 (2.08-2.84) days
Fall armyworm [8]; fall armyworm, Spinosad 25 mg/L, 3 DAT (row with 024G3R)
  % Mort. Chem.: 80%
Fall armyworm [8]; fall armyworm, Spinosad 25 mg/L, 3 DAT (row with O348UX)
  % Mort. Chem.: 80%
Fall armyworm [8]; fall armyworm, Spinosad alone 25 mg/L
  LT50 Chem.: 4.09 days and 2.43 days
Fall armyworm [8]; in vivo
  % Mort. Chem.: 40%
  LT50 (95% confidence intervals) in days: 4.09 (3.67-4.55) days
Colorado potato beetle [9]
  % Mortality (3DAT): 15%
  % Mortality (4DAT): 20%
  % Mortality (5DAT): 40%

## CS/C(C)=N\OC(=O)N(C)SN(C)C(=O)O/N=C(\C)SC [Thiodicarb]
Cabbage looper [10]; [16]
  mortality at 140 µg/mL: 25%
Cabbage looper [10]; [17]
  mortality at 140 µg/mL: 50%
Tobacco budworm [11]; [16]
  mortality at 140 µg/mL: 25%
Tobacco budworm [11]; [17]
  mortality at 140 µg/mL: 50%
Corn earworm; 2nd instar, thiodicarb 140 mg/mL, isolate O43NEW 1×10^7 cfu/mL
  LT50 (95% confidence intervals) in days: 2.02 (1.60-2.50) days
Corn earworm; Helicoverpa zea, foliar, 24 h, 2nd instar, thiodicarb, isolate O43NEW 1×10^7 cfu/mL, read-out: % Mortality (1DAT)
  mortality: 0%
Corn earworm; Thiodicarb 140 mg/L, 1 DAT
  % Mort. Chem.: 0%
Corn earworm; Thiodicarb 140 mg/L, 2 DAT
  % Mort. Chem.: 33%
Corn earworm; Thiodicarb alone 140 mg/L
  LT50 Chem.: 2.02 days
Tobacco budworm [12]
  LT50 (95% confidence intervals) in days: 1.98 (1.57-2.45) days
Tobacco budworm [12]; Thiodicarb 140 mg/L
  % Mort. Chem.: 25%
Tobacco budworm [12]; Thiodicarb alone 140 mg/L
  LT50 Chem.: 1.98 days
Cabbage looper [13]; cabbage looper, Thiodicarb alone 140 mg/L
  LT50 Chem.: 1.40 days
Cabbage looper [13]; in vivo
  % Mort. Chem.: 25%
  LT50 (95% confidence intervals): 1.40 days

## CNC(=O)c1cc(Cl)cc(C)c1NC(=O)c1cc(Br)nn1-c1ncccc1Cl [Chlorantraniliprole]
Cabbage looper [10]; [16]
  mortality at 18 µg/mL: 8%
Cabbage looper [10]; [17]
  mortality at 18 µg/mL: 38%
Tobacco budworm [11]; [16]
  mortality at 18 µg/mL: 8%
Tobacco budworm [11]; [17]
  mortality at 18 µg/mL: 25%
Corn earworm; 2nd instar, chlorantraniliprole 18 mg/L, isolate O43NEW 1×10^5 cfu/mL
  LT50 (95% confidence intervals) in days: 3.29 (2.85-3.77) days
Corn earworm; Helicoverpa zea, foliar, 24 h, 2nd instar, chlorantraniliprole 18 mg/L, isolate O43NEW 1×10^5 cfu/mL, read-out: % Mortality (1DAT)
  mortality at 18 µg/mL: 0%
Corn earworm; Helicoverpa zea, foliar, 48 h, 2nd instar, chlorantraniliprole 18 mg/L, isolate O43NEW 1×10^5 cfu/mL, read-out: % Mortality (2DAT)
  mortality at 18 µg/mL: 0%
Corn earworm; Chlorantraniliprole 18 mg/L, 2 DAT (row with O43NEW 1 × 10^3)
  % Mort. Chem.: 0%
Corn earworm; Chlorantraniliprole 18 mg/L, 2 DAT (row with O43NEW 1 × 10^5)
  % Mort. Chem.: 0%
Corn earworm; [18]
  LT50 Chem.: 3.29 days and 3.44 days
Yersinia entomophaga; 0.15 mg insecticide
  Average CFU: 523 CFU
Yersinia entomophaga; 2.0 mg insecticide
  Average CFU: 387 CFU
Tobacco budworm [12]
  LT50 (95% confidence intervals) in days: 2.20 (1.91-2.53) days
Tobacco budworm [12]; Chlorantraniliprole 18 mg/L
  % Mort. Chem.: 8%
Tobacco budworm [12]; [18]
  LT50 Chem.: 2.20 days
Cabbage looper [13]; cabbage looper, Chlorantraniliprole 18 mg/L, 1 DAT
  % Mort. Chem.: 8%
Cabbage looper [13]; cabbage looper, Chlorantraniliprole alone 18 mg/L
  LT50 Chem.: 2.39 days
Cabbage looper [13]; in vivo
  % Mort. Chem.: 38%
  LT50 (95% confidence intervals) in days: 2.39 (2.10-2.70) days
